Reference: patent publication US20240208992A1, “MACROCYCLES AS CFTR MODULATORS” (Idorsia Pharmaceuticals Ltd, priority 2021, published 2024)

Biological target: human F508del-CFTR (Homo sapiens, UniProt P13569, DEL508-508)
Experiment: F508del-CFTR cell surface expression (corrector activity), DiscoveRx ß-galactosidase complementation chemiluminescence assay in recombinant U2OS cell line;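 further: U2OS cells co-expressing ProLink-tagged F508del-CFTR and a membrane-anchored enzyme acceptor, where more surface CFTR restores β-galactosidase activity measured by chemiluminescence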
Details: for EC50: EC50, F508del-CFTR cell surface expression, U2OS cells, 16h compound incubation, geomean values; for Emax: U2OS, in relation to Emax of corrector lumacaftor (=100%), arithmetic mean values

Sequence of human F508del-CFTR (P13569 with tags, fused parts or gaps DEL508-508): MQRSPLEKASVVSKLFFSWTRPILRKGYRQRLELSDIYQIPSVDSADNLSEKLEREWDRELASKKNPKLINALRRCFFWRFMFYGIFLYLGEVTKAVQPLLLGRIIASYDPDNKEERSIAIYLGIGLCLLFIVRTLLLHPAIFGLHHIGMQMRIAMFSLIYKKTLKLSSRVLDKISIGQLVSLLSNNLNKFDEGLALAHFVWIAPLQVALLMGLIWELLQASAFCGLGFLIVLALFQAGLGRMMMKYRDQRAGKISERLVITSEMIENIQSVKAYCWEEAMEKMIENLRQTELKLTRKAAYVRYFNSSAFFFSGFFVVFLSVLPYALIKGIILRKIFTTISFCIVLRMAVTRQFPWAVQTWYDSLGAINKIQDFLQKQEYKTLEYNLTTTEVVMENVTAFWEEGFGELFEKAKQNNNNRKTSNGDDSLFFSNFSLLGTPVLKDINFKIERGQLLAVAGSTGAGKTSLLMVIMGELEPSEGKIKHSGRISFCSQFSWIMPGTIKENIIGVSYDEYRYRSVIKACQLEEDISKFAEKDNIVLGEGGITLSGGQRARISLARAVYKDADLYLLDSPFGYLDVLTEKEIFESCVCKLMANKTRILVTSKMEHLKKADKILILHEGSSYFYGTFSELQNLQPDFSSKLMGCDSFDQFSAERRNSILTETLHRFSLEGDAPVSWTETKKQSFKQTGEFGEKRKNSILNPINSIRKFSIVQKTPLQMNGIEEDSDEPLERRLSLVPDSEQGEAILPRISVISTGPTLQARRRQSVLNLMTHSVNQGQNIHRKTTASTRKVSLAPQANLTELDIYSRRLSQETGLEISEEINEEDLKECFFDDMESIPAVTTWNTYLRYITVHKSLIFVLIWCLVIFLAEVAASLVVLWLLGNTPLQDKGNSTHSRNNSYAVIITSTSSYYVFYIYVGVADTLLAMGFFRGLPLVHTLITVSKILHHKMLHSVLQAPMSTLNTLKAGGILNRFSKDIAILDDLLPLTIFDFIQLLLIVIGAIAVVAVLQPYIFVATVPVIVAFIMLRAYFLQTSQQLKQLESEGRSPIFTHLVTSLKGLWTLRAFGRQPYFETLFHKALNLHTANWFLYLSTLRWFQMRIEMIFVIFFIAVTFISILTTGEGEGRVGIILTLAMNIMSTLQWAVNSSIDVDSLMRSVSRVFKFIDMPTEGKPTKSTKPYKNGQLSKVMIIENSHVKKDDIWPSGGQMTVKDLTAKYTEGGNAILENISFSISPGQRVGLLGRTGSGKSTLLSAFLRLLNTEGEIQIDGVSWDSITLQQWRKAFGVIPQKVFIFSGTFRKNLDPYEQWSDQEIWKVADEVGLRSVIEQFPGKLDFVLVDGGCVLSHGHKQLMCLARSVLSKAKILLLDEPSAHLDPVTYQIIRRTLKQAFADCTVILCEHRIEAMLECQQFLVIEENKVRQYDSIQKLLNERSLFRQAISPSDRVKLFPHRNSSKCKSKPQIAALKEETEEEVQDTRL

Row | Structure (SMILES) | EC50 | Emax
1 | COc1nccc2c1C(=O)N[C@H](C(=O)NCCc1cc(C)no1)CC(=O)N(C)[C@@H](CC(C)C)C(=O)N1CCCC[C@@H]1C(=O)N[C@H](Cc1ccccc1)CO2 [Example 477, (7S,11S,17aR,20R)-20-benzyl-11-isobutyl-4-methoxy-10-methyl-N-(2-(3-methylisoxazol-5-yl)ethyl)-5,9,12,18-tetraoxo-5,6,7,8,9,10,11,12,15,16,17,17a,18,19,20,21-hexadecahydro-14H-dipyrido[2,1-f:3′,4′-p][1]oxa[4,7,10,14]tetraazacycloheptadecine-7-carboxamide] | 754 nM | 327%
2 | COc1nccc2c1C(=O)N[C@H](C(=O)NCCc1c(F)cccc1F)CC(=O)N(C)[C@@H](CC(C)C)C(=O)N1CCCC[C@@H]1C(=O)N[C@H](Cc1ccccc1)CO2 [Example 478, (7S,11S,17aR,20R)-20-benzyl-N-(2,6-difluorophenethyl)-11-isobutyl-4-methoxy-10-methyl-5,9,12,18-tetraoxo-5,6,7,8,9,10,11,12,15,16,17,17a,18,19,20,21-hexadecahydro-14H-dipyrido[2,1-f:3′,4′-p][1]oxa[4,7,10,14]tetraazacycloheptadecine-7-carboxamide] | 168 nM | 337%
3 | COc1cncc(S(=O)(=O)N2CCN3C(=O)[C@H](CC(C)C)N(C)C(=O)C[C@@H](C(=O)NCCc4cc(C)no4)NC(=O)c4c(ccc5ccccc45)OC[C@@H](Cc4ccccc4)NC(=O)[C@H]3C2)c1 [Example 479, (4aR,7R,18S,22S)-7-benzyl-22-isobutyl-3-((5-methoxypyridin-3-yl)sulfonyl)-21-methyl-N-(2-(3-methylisoxazol-5-yl)ethyl)-5,16,20,23-tetraoxo-2,3,4,4a,5,6,7,8,16,17,18,19,20,21,22,23-hexadecahydro-1H-naphtho[1,2-p]pyrazino[2,1-f][1]oxa[4,7,10,14]tetraazacycloheptadecine-18-carboxamide] | 480 nM | 253%
4 | Cc1cc(CCNC(=O)[C@@H]2CC(=O)N(C)[C@@H](CC(C)C)C(=O)N3CCCC[C@@H]3C(=O)N[C@H](Cc3ccccc3)COc3cnc4ccc(F)cc4c3C(=O)N2)on1 [Example 480, (9S,13S,19aR,22R)-22-benzyl-5-fluoro-13-isobutyl-12-methyl-N-(2-(3-methylisoxazol-5-yl)ethyl)-7,11,14,20-tetraoxo-7,8,9,10,11,12,13,14,17,18,19,19a,20,21,22,23-hexadecahydro-16H-pyrido[2′,11:6,7][1]oxa[4,7,10,14]tetraazacycloheptadecino[17,16-c]quinoline-9-carboxamide] | 201 nM | 276%
5 | CC(C)C[C@H]1C(=O)N2CCCC[C@@H]2C(=O)N[C@H](Cc2ccccc2)COc2cnc3ccc(F)cc3c2C(=O)N[C@H](C(=O)NCCc2ccc(-n3nccn3)cc2)CC(=O)N1C [Example 481, (9S,13S,19aR,22R)-N-(4-(2H-1,2,3-triazol-2-yl)phenethyl)-22-benzyl-5-fluoro-13-isobutyl-12-methyl-7,11,14,20-tetraoxo-7,8,9,10,11,12,13,14,17,18,19,19a,20,21,22,23-hexadecahydro-16H-pyrido[2′,1′:6,7][1]oxa[4,7,10,14]tetraazacycloheptadecino[17,16-c]quinoline-9-carboxamide] | 448 nM | 225%
6 | Cc1nc2ccc3c(c2o1)C(=O)N[C@H](C(=O)NCCc1c(F)cccc1F)CC(=O)N(C)[C@@H](CC(C)C)C(=O)N1CCCC[C@@H]1C(=O)N[C@H](Cc1ccccc1)CO3 [Example 482, (8S,12S,18aR,21R)-21-benzyl-N-(2,6-difluorophenethyl)-12-isobutyl-4,11-dimethyl-6,10,13,19-tetraoxo-6,7,8,9,10,11,12,13,16,17,18,18a,19,20,21,22-hexadecahydro-15H-oxazolo[4′,5′:5,6]benzo[1,2-p]pyrido[2,1-f][1]oxa[4,7,10,14]tetraazacycloheptadecine-8-carboxamide] | 414 nM | 247%
7 | COc1nccc2c1C(=O)N[C@H](C(=O)NCCc1noc(C3CC3)n1)CC(=O)N(C)[C@@H](CC(C)C)C(=O)N1CCCC[C@@H]1C(=O)N[C@H](Cc1ccccc1)CO2 [Example 483, (7S,11S,17aR,20R)-20-benzyl-N-(2-(5-cyclopropyl-1,2,4-oxadiazol-3-yl)ethyl)-11-isobutyl-4-methoxy-10-methyl-5,9,12,18-tetraoxo-5,6,7,8,9,10,11,12,15,16,17,17a,18,19,20,21-hexadecahydro-14H-dipyrido[2,1-f:3′,4′-p][1]oxa[4,7,10,14]tetraazacycloheptadecine-7-carboxamide] | 517 nM | 311%
8 | CC(C)C[C@H]1C(=O)N2CCCC[C@@H]2C(=O)N[C@H](Cc2ccccc2)COc2nc3ccccn3c2C(=O)N[C@H](C(=O)NCCc2c(F)cccc2F)CC(=O)N1C [Example 484, (7S,11S,22R,24aR)-22-benzyl-N-(2,6-difluorophenethyl)-7-isobutyl-8-methyl-6,9,13,24-tetraoxo-1,3,4,6,7,8,9,10,11,12,13,21,22,23,24,24a-hexadecahydro-2H-pyrido[2,1-f]pyrido[2′,1′:2,3]imidazo[4,5-p][1]oxa[4,7,10,14]tetraazacycloheptadecine-11-carboxamide] | 251 nM | 117%
9 | CC(C)C[C@H]1C(=O)N2CCCC[C@@H]2C(=O)N[C@H](Cc2ccccc2)COc2ccc3ncn(C)c3c2C(=O)N[C@H](C(=O)NCCc2c(F)cccc2F)CC(=O)N1C [Example 485, (8S,12S,18aR,21R)-21-benzyl-N-(2,6-difluorophenethyl)-12-isobutyl-5,11-dimethyl-6,10,13,19-tetraoxo-6,7,8,9,10,11,12,13,16,17,18,18a,19,20,21,22-hexadecahydro-5H,15H-imidazo[4′,5′:5,6]benzo[1,2-p]pyrido[2,1-f][1]oxa[4,7,10,14]tetraazacycloheptadecine-8-carboxamide] | 238 nM | 204%
10 | CC(C)C[C@H]1C(=O)N2CCCC[C@@H]2C(=O)N[C@H](Cc2ccccc2)COc2ccc3ncccc3c2C(=O)N[C@H](C(=O)NCCc2noc(C3CC3)n2)CC(=O)N1C [Example 486, (9S,13S,19aR,22R)-22-benzyl-N-(2-(5-cyclopropyl-1,2,4-oxadiazol-3-yl)ethyl)-13-isobutyl-12-methyl-7,11,14,20-tetraoxo-7,8,9,10,11,12,13,14,17,18,19,19a,20,21,22,23-hexadecahydro-16H-pyrido[2′,11:6,7][1]oxa[4,7,10,14]tetraazacycloheptadecino[16,17-f]quinoline-9-carboxamide] | 201 nM | 303%
11 | Cc1cc(CCNC(=O)[C@@H]2CC(=O)N(C)[C@@H](CC(C)C)C(=O)N3CCCC[C@@H]3C(=O)N[C@@H](Cc3ccccc3)COc3cnc4ccccc4c3C(=O)N2)on1 [Example 487, (9S,13S,19aR,22S)-22-benzyl-13-isobutyl-12-methyl-N-(2-(3-methylisoxazol-5-yl)ethyl)-7,11,14,20-tetraoxo-7,8,9,10,11,12,13,14,17,18,19,19a,20,21,22,23-hexadecahydro-16H-pyrido[2′,1′:6,7][1]oxa[4,7,10,14]tetraazacycloheptadecino[17,16-c]quinoline-9-carboxamide] | 1340 nM | 147%
12 | COc1cccc(CCNC(=O)[C@@H]2CC(=O)N(C)[C@@H](CC(C)C)C(=O)N(C)C3(CC3)C(=O)N[C@H](Cc3ccccc3)COc3ccc(OC)nc3C(=O)N2)c1 [Example 488, (3′R,9′S,13′S)-3′-benzyl-9′-isobutyl-17′-methoxy-N-(3-methoxyphenethyl)-7′,10′-dimethyl-5′,8′,11′,15′-tetraoxo-2′,3′,4′,5′,8′,9′,10′,11′,12′,13′,14′,15′-dodecahydro-7′H-spiro[cyclopropane-1,6′-pyrido[2,3-p][1]oxa[4,7,10,14]tetraazacycloheptadecine]-13′-carboxamide] | 910 nM | 270%
13 | CC(C)C[C@H]1C(=O)N2CCOC[C@@H]2C(=O)N[C@H](Cc2ccccc2)COc2cnc3ccc(F)cc3c2C(=O)N[C@H](C(=O)NCCc2noc(C3CC3)n2)CC(=O)N1C [Example 489, (9S,13S,19aR,22R)-22-benzyl-N-(2-(5-cyclopropyl-1,2,4-oxadiazol-3-yl)ethyl)-5-fluoro-13-isobutyl-12-methyl-7,11,14,20-tetraoxo-7,8,9,10,11,12,13,14,16,17,19,19a,20,21,22,23-hexadecahydro-[1,4]oxazino[3′,4′:6,7][1]oxa[4,7,10,14]tetraazacycloheptadecino[17,16-c]quinoline-9-carboxamide] | 625 nM | 273%
14 | CC(C)C[C@H]1C(=O)N2CCCC[C@@H]2C(=O)N[C@H](Cc2ccccc2)COc2ccc3c(cnn3C)c2C(=O)N[C@H](C(=O)NCCc2c(F)cccc2F)CC(=O)N1C [Example 490, (8S,12S,18aR,21R)-21-benzyl-N-(2,6-difluorophenethyl)-12-isobutyl-3,11-dimethyl-6,10,13,19-tetraoxo-6,7,8,9,10,11,12,13,16,17,18,18a,19,20,21,22-hexadecahydro-3H,15H-pyrido[2′,1′:6,7][1]oxa[4,7,10,14]tetraazacycloheptadecino[16,17-e]indazole-8-carboxamide] | 222 nM | 181%
15 | CC(C)C[C@H]1C(=O)N2CCCC[C@@H]2C(=O)N[C@H](Cc2ccccc2)COc2ccc3c(c2C(=O)N[C@H](C(=O)NCCc2c(F)cccc2F)CC(=O)N1C)OCC3 [Example 491, (8S,12S,18aR,21R)-21-benzyl-N-(2,6-difluorophenethyl)-12-isobutyl-11-methyl-6,10,13,19-tetraoxo-3,4,6,7,8,9,10,11,12,13,16,17,18,18a,19,20,21,22-octadecahydro-15H-benzofuro[7,6-p]pyrido[2,1-f][1]oxa[4,7,10,14]tetraazacycloheptadecine-8-carboxamide] | 209 nM | 178%
